Reference: ChEMBL document CHEMBL1201862, “PubChem BioAssay data set” (2004)
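Briefly, cells in 96-well plates were exposed to five compound concentrations for 48 h, and endpoints were estimated by linear interpolation. Abbreviation: GI50, concentration required for 50% inhibition of growth.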 The source made the active and inactive calls. No stated cut-off is given here; in the data, active = GI50 up to about 1.1 µM and inactive = higher.

Assays:
Assay in all cases: NCI anticancer screen, dose series, 48 h
[1] = test system: 786-0
[2] = test system: A498
[3] = test system: A549
[4] = test system: ACHN
[5] = test system: BT-549
[6] = test system: CAKI-1
[7] = test system: CCRF-CEM
[8] = test system: COLO 205
[9] = test system: DU-145
[10] = test system: EKVX
[11] = test system: HCC 2998
[12] = test system: HCT-116
[13] = test system: HCT-15
[14] = test system: HL-60
[15] = test system: HOP-62
[16] = test system: HOP-92
[17] = test system: HT-29
[18] = test system: Hs-578T
[19] = test system: IGROV-1
[20] = test system: K562
[21] = test system: KM12
[22] = test system: LOX IMVI
[23] = test system: M14
[24] = test system: MCF7
[25] = test system: MDA-MB-231
[26] = test system: MDA-MB-435
[27] = test system: MDA-N
[28] = test system: MOLT-4
[29] = test system: Malme-3M
[30] = test system: NCI-H226
[31] = test system: NCI-H23
[32] = test system: NCI-H460
[33] = test system: NCI-H522
[34] = test system: NCI/ADR-RES
[35] = test system: OVCAR-3
[36] = test system: OVCAR-4
[37] = test system: OVCAR-5
[38] = test system: OVCAR-8
[39] = test system: PC-3
[40] = test system: RPMI-8226
[41] = test system: RXF 393
[42] = test system: SF-268
[43] = test system: SF-295
[44] = test system: SF-539
[45] = test system: SK-MEL-28
[46] = test system: SK-MEL-2
[47] = test system: SK-MEL-5
[48] = test system: SK-OV-3
[49] = test system: SN12C
[50] = test system: SNB-19
[51] = test system: SNB-75
[52] = test system: SR
[53] = test system: SW-620
[54] = test system: T47D
[55] = test system: TK-10
[56] = test system: U-251
[57] = test system: UACC-257
[58] = test system: UACC-62
[59] = test system: UO-31

O=[N+]([O-])c1cccc2nc3ccccc3c(NCCCN3CCOCC3)c12
GI50 [1]: < 0.0106 µM (active) | GI50 [2]: < 0.0146 µM (active) | GI50 [3]: < 0.0121 µM (active) | GI50 [4]: < 0.01 µM (active) | GI50 [5]: 0.0273 µM (active) | GI50 [6]: 0.0221 µM (active) | GI50 [7]: < 0.0199 µM (active) | GI50 [8]: < 0.01 µM (active) | GI50 [9]: < 0.01 µM (active) | GI50 [10]: < 0.0127 µM (active) | GI50 [11]: < 0.01 µM (active) | GI50 [12]: < 0.01 µM (active) | GI50 [13]: < 0.0104 µM | GI50 [14]: 0.0302 µM (active) | GI50 [15]: < 0.016 µM (active) | GI50 [16]: 0.0159 µM (active) | GI50 [17]: < 0.01 µM (active) | GI50 [18]: 0.0405 µM (active) | GI50 [19]: 0.0217 µM (active) | GI50 [20]: 0.015 µM (active) | GI50 [21]: 0.0154 µM (active) | GI50 [22]: 0.0442 µM (active) | GI50 [23]: < 0.0124 µM (active) | GI50 [24]: < 0.0116 µM (active) | GI50 [25]: 0.0189 µM (active) | GI50 [26]: < 0.0117 µM (active) | GI50 [27]: < 0.01 µM (active) | GI50 [28]: < 0.01 µM (active) | GI50 [29]: 0.0142 µM (active) | GI50 [30]: 0.0213 µM (active) | GI50 [31]: < 0.0129 µM (active) | GI50 [32]: < 0.01 µM (active) | GI50 [33]: 0.0168 µM (active) | GI50 [34]: 0.044 µM (active) | GI50 [35]: 0.0184 µM (active) | GI50 [36]: 0.0191 µM (active) | GI50 [37]: 0.0287 µM (active) | GI50 [38]: 0.012 µM (active) | GI50 [39]: 0.0219 µM (active) | GI50 [40]: 0.0103 µM (active) | GI50 [41]: < 0.013 µM (active) | GI50 [42]: 0.0226 µM (active) | GI50 [43]: 0.0256 µM (active) | GI50 [44]: 0.0283 µM (active) | GI50 [45]: 0.034 µM (active) | GI50 [46]: 0.0194 µM (active) | GI50 [47]: < 0.0114 µM (active) | GI50 [48]: 0.0362 µM (active) | GI50 [49]: < 0.0132 µM (active) | GI50 [50]: 0.0304 µM (active) | GI50 [51]: 0.0387 µM (active) | GI50 [52]: < 0.01 µM (active) | GI50 [53]: < 0.01 µM (active) | GI50 [54]: 0.0355 µM (active) | GI50 [55]: 0.029 µM (active) | GI50 [56]: 0.0276 µM (active) | GI50 [57]: 0.0235 µM (active) | GI50 [58]: 0.0163 µM (active) | GI50 [59]: 0.0144 µM (active)

CN(CCNC(=O)c1cc(-c2ccccc2)nc2ccccc12)CCNC(=O)c1cc(-c2ccccc2)nc2ccccc12
GI50 [1]: 5.96 µM (inactive) | GI50 [2]: 12.2 µM (inactive) | GI50 [3]: > 100 µM (inactive) | GI50 [4]: > 47 µM (inactive) | GI50 [5]: > 100 µM (inactive) | GI50 [6]: > 100 µM (inactive) | GI50 [7]: 4.69 µM (inactive) | GI50 [8]: 2.22 µM (inactive) | GI50 [9]: 12.5 µM (inactive) | GI50 [10]: 15.9 µM (inactive) | GI50 [11]: 2.43 µM (inactive) | GI50 [12]: 8.05 µM (inactive) | GI50 [13]: > 80.5 µM | GI50 [14]: 4.7 µM (inactive) | GI50 [15]: 26.1 µM (inactive) | GI50 [16]: 2.61 µM (inactive) | GI50 [17]: 2.14 µM (inactive) | GI50 [18]: 6.18 µM (inactive) | GI50 [19]: 3.6 µM (inactive) | GI50 [20]: 3.55 µM (inactive) | GI50 [21]: 4.46 µM (inactive) | GI50 [22]: 3.89 µM (inactive) | GI50 [23]: 2.17 µM (inactive) | GI50 [24]: 3.87 µM (inactive) | GI50 [25]: > 50.4 µM (inactive) | GI50 [26]: 6.92 µM (inactive) | GI50 [27]: 11.1 µM (inactive) | GI50 [28]: 4.17 µM (inactive) | GI50 [29]: 2.12 µM (inactive) | GI50 [30]: 14.6 µM (inactive) | GI50 [31]: > 45.4 µM (inactive) | GI50 [32]: 8.87 µM (inactive) | GI50 [33]: 14.3 µM (inactive) | GI50 [34]: > 100 µM (inactive) | GI50 [35]: 23 µM (inactive) | GI50 [37]: 8.55 µM (inactive) | GI50 [38]: > 28.1 µM (inactive) | GI50 [39]: 10.3 µM (inactive) | GI50 [40]: 4.99 µM (inactive) | GI50 [41]: 8.67 µM (inactive) | GI50 [42]: 8.51 µM (inactive) | GI50 [43]: 13.2 µM (inactive) | GI50 [44]: 7.71 µM (inactive) | GI50 [45]: 2.19 µM (inactive) | GI50 [46]: 4.41 µM (inactive) | GI50 [47]: 2.31 µM (inactive) | GI50 [48]: > 100 µM (inactive) | GI50 [49]: > 100 µM (inactive) | GI50 [50]: > 60 µM (inactive) | GI50 [51]: 7.53 µM (inactive) | GI50 [52]: 2.98 µM (inactive) | GI50 [53]: 6.12 µM (inactive) | GI50 [54]: > 30.5 µM (inactive) | GI50 [55]: > 100 µM (inactive) | GI50 [56]: 8.75 µM (inactive) | GI50 [57]: 3.05 µM (inactive) | GI50 [58]: 12.9 µM (inactive) | GI50 [59]: 7.1 µM (inactive)
